pEC50: −log10 of the molar value.
Molecular target: T1, human M4 muscarinic acetylcholine receptor (Homo sapiens, UniProt P08173)
T1 construct: expressed in transfected cells; host or cells: CHO-K1
T1 sequence (P08173 1-479): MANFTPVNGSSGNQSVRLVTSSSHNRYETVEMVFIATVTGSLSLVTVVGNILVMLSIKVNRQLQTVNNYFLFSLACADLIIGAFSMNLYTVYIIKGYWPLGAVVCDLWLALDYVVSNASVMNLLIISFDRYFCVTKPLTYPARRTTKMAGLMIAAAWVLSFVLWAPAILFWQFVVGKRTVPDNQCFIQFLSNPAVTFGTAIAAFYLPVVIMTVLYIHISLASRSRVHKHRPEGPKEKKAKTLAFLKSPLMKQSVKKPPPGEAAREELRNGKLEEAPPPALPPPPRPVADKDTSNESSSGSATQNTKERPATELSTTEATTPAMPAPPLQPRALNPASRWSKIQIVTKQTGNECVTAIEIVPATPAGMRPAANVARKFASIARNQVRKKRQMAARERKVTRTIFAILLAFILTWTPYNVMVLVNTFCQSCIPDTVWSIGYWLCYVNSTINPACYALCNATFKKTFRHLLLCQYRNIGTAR
Test: human FLIPR-based M4 PAM assay (calcium mobilization in CHO-K1 cells with human M4 receptor and Gαqi5)
Assay type: cell-based
Conditions: inflection point of dose response curve, acetylcholine at 20% of maximum response, FLIPR Tetra, read-out: M4 PAM IP
Method in brief: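 CHO-K1 cells stably expressing human M4 and chimeric Gαqi5 were dye-loaded ~1 h at 37° C. Test compound was added with fluorescence recorded 4 min, then acetylcholine at EC20 (sometimes a further EC70 addition) with reading 3.5 min. Value is the inflection point of a 4-parameter logistic fit.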

Row | Structure (SMILES) | pEC50
1 | CN1Cc2ccc(-c3nc(Cl)cc(N)c3-c3cnn(CC4(C)CCCC4)c3)cc2C1=O [Example 63, 6-(4-amino-6-chloro-3-(1-((1-methylcyclopentyl)methyl)-1H-pyrazol-4-yl)pyridin-2-yl)-2-methylisoindolin-1-one] | 6.31
2 | CC1(Cn2cc(-c3ccc(C#N)nc3-c3ccc4c(c3)C(=O)NC4(C)C)cn2)CCCC1 [Example 64, 6-(1,1-dimethyl-3-oxoisoindolin-5-yl)-5-(1-((1-methylcyclopentyl)methyl)-1H-pyrazol-4-yl)picolinonitrile] | 6.92
3 | Cc1ccc(-c2cnn(CC3(C)CCCC3)c2)c(-c2ccc3c(c2)C(=O)N(CC2CC2)C3)n1 [Example 65, 2-(cyclopropylmethyl)-6-(6-methyl-3-(1-((1-methylcyclopentyl)methyl)-1H-pyrazol-4-yl)pyridin-2-yl)isoindolin-1-one] | 6.87
4 | Cc1cc(-c2cnn(CC3(C)CCCC3)c2F)c(-c2ccc3c(c2)C(=O)N(C)C3)nc1Cl [Example 75, 6-(6-chloro-3-(5-fluoro-1-((1-methylcyclopentyl)methyl)-1H-pyrazol-4-yl)-5-methylpyridin-2-yl)-2-methylisoindolin-1-one] | 7.10
5 | Cc1cc(-c2cnn(CC3(C)CCCC3)c2)c(-c2ccc3c(c2)C(=O)N(C)C3)nc1CO [Example 77, 6-(6-(hydroxymethyl)-5-methyl-3-(1-((1-methylcyclopentyl)methyl)-1H-pyrazol-4-yl)pyridin-2-yl)-2-methylisoindolin-1-one] | 7.07
6 | CN1Cc2ccc(-c3nc(C#N)ccc3-c3cnn(CC4(C)CCCC4)c3Cl)cc2C1=O [Example 79, 5-(5-chloro-1-((1-methylcyclopentyl)methyl)-1H-pyrazol-4-yl)-6-(2-methyl-3-oxoisoindolin-5-yl)picolinonitrile] | 6.97
7 | CC1(Cn2cc(-c3ccc(C#N)nc3-c3ccc4c(c3)C(=O)N(C3COC3)C4)cn2)CCCC1 [Example 82, 5-(1-((1-methylcyclopentyl)methyl)-1H-pyrazol-4-yl)-6-(2-(oxetan-3-yl)-3-oxoisoindolin-5-yl)picolinonitrile] | 6.51
8 | O=C1c2cc(-c3ncccc3-c3cnn(CC4CCCC4)c3)ccc2CN1c1ccccc1 [Example 83, 6-(3-(1-(cyclopentylmethyl)-1H-pyrazol-4-yl)pyridin-2-yl)-2-phenylisoindolin-1-one] | 7.00
9 | O=C1c2cc(-c3ncccc3-c3cnn(CC4CCCC4)c3)ccc2CN1CC1CCC1 [Example 86, 2-(cyclobutylmethyl)-6-(3-(1-(cyclopentylmethyl)-1H-pyrazol-4-yl)pyridin-2-yl)isoindolin-1-one] | 7.21
10 | N#CC1(N2Cc3ccc(-c4ncccc4-c4cnn(CC5CCCC5)c4)cc3C2=O)CC1 [Example 87, 1-(6-(3-(1-(cyclopentylmethyl)-1H-pyrazol-4-yl)pyridin-2-yl)-1-oxoisoindolin-2-yl)cyclopropane-1-carbonitrile] | 6.50

Stronger by pEC50, values ahead:

Row | pEC50 | Structure (SMILES)
11 | 7.41 | CC1(Cn2cc(-c3cc4c(nc3-c3cnc5c(c3)C(=O)N(CCF)C5)CCC4)cn2)CCCC1 [Example 66, 6-(2-fluoroethyl)-3-(3-(1-((1-methylcyclopentyl)methyl)-1H-pyrazol-4-yl)-6,7-dihydro-5H-cyclopenta[b]pyridin-2-yl)-6,7-dihydro-5H-pyrrolo[3,4-b]pyridin-5-one]
12 | 7.64 | CN1Cc2ccc(-c3nc(CF)ccc3-c3cnn(CC4(C)CCCC4)c3F)cc2C1=O [Example 68, 6-(3-(5-fluoro-1-((1-methylcyclopentyl)methyl)-1H-pyrazol-4-yl)-6-(fluoromethyl)pyridin-2-yl)-2-methylisoindolin-1-one]
13 | 7.47 | CC1(Cn2cc(-c3cc4c(nc3-c3cnc5c(c3)C(=O)N(CCC#N)C5)CCC4)cn2)CCCC1 [Example 69, 3-(3-(3-(1-((1-methylcyclopentyl)methyl)-1H-pyrazol-4-yl)-6,7-dihydro-5H-cyclopenta[b]pyridin-2-yl)-5-oxo-5,7-dihydro-6H-pyrrolo[3,4-b]pyridin-6-yl)propanenitrile]
14 | 7.33 | COCCN1Cc2ncc(-c3nc4c(cc3-c3cnn(CC5(C)CCCC5)c3)CCC4)cc2C1=O [Example 70, 6-(2-methoxyethyl)-3-(3-(1-((1-methylcyclopentyl)methyl)-1H-pyrazol-4-yl)-6,7-dihydro-5H-cyclopenta[b]pyridin-2-yl)-6,7-dihydro-5H-pyrrolo[3,4-b]pyridin-5-one]
15 | 7.46 | CN1C(=O)c2cc(-c3nc4c(cc3-c3cnn(CC5(C)CCCC5)c3)CCC4)cnc2C1(C)C [Example 71, 6,7,7-trimethyl-3-(3-(1-((1-methylcyclopentyl)methyl)-1H-pyrazol-4-yl)-6,7-dihydro-5H-cyclopenta[b]pyridin-2-yl)-6,7-dihydro-5H-pyrrolo[3,4-b]pyridin-5-one]
16 | 7.39 | CN1C(=O)c2cc(-c3nc(C#N)ccc3-c3cnn(CC4(C)CCCC4)c3)ccc2C1(C)C [Example 72]
17 | 7.28 | COCCN1Cc2ccc(-c3nc4c(cc3-c3cnn(CC5(C)CCCC5)c3)CCC4)cc2C1=O [Example 73, 2-(2-methoxyethyl)-6-(3-(1-((1-methylcyclopentyl)methyl)-1H-pyrazol-4-yl)-6,7-dihydro-5H-cyclopenta[b]pyridin-2-yl)isoindolin-1-one]
18 | 7.62 | CN1Cc2ncc(-c3nc4c(cc3-c3cnn(CC5(C)CCCC5)c3F)CCC4)cc2C1=O [Example 74, 3-(3-(5-fluoro-1-((1-methylcyclopentyl)methyl)-1H-pyrazol-4-yl)-6,7-dihydro-5H-cyclopenta[b]pyridin-2-yl)-6-methyl-6,7-dihydro-5H-pyrrolo[3,4-b]pyridin-5-one]
19 | 8.05 | Cc1ccc(-c2cnn(CC3CCCC3)c2F)c(-c2ccc3c(c2)C(=O)N(C)C3)n1 [Example 76, 6-(3-(1-(cyclopentylmethyl)-5-fluoro-1H-pyrazol-4-yl)-6-methylpyridin-2-yl)-2-methylisoindolin-1-one]
20 | 7.49 | CN1Cc2ccc(-c3nc(C#N)c(Cl)cc3-c3cnn(CC4(C)CCCC4)c3)cc2C1=O [Example 78, 3-chloro-6-(2-methyl-3-oxoisoindolin-5-yl)-5-(1-((1-methylcyclopentyl)methyl)-1H-pyrazol-4-yl)picolinonitrile]
21 | 7.59 | CN1Cc2ncc(-c3nc(C(F)F)ccc3-c3cnn(CC4(C)CCCC4)c3)cc2C1=O [Example 80, 3-(6-(difluoromethyl)-3-(1-((1-methylcyclopentyl)methyl)-1H-pyrazol-4-yl)pyridin-2-yl)-6-methyl-6,7-dihydro-5H-pyrrolo[3,4-b]pyridin-5-one]
22 | 7.34 | CN1Cc2ncc(-c3nc(C(F)(F)F)ccc3-c3cnn(CC4(C)CCCC4)c3)cc2C1=O [Example 81, 6-methyl-3-(3-(1-((1-methylcyclopentyl)methyl)-1H-pyrazol-4-yl)-6-(trifluoromethyl)pyridin-2-yl)-6,7-dihydro-5H-pyrrolo[3,4-b]pyridin-5-one]
23 | 7.33 | O=C1c2cc(-c3ncccc3-c3cnn(CC4CCCC4)c3)ccc2CN1CC1CC1 [Example 84, 6-(3-(1-(Cyclopentylmethyl)-1H-pyrazol-4-yl)pyridin-2-yl)-2-(cyclopropylmethyl)isoindolin-1-one]
24 | 7.22 | O=C1c2cc(-c3ncccc3-c3cnn(CC4CCCC4)c3)ccc2CN1CC1CCCO1 (stereo not drawn) [Example 85, 6-(3-(1-(cyclopentylmethyl)-1H-pyrazol-4-yl)pyridin-2-yl)-2-((tetrahydrofuran-2-yl)methyl)isoindolin-1-one]
